Reference: ChEMBL document CHEMBL4828758, “Elucidation of Distinct Modular Assemblies of Smoothened Receptor by Bitopic Ligand Measurement” (J Med Chem, 2021)
The source made the active and inactive calls. No cut-off for these calls is given here.

Columns and labels:
Type in all cases: functional, cell-based
[1] = biological target: Protein smoothened (Mus musculus) (UniProt P56726); experiment: Agonist activity at SMO in mouse NIH3T3 cells assessed as induction of SMO accumulation in primary cilia incubated for 12 hrs by AlexaFluor 488/ DAPI staining based immunofluorescence method
[2] = biological target: Protein smoothened (Mus musculus) (UniProt P56726); experiment: Agonist activity at SMO in mouse NIH3T3 cells assessed as induction of SMO accumulation in primary cilia incubated for 12 hrs by fluorescence method; conditions: filed as agonist
[3] = biological target: Protein smoothened (Mus musculus) (UniProt P56726); experiment: Agonist activity at SMO in mouse NIH3T3 cells assessed as fluorescent intensity of ciliary SMO incubated for 12 hrs by fluorescence method; conditions: filed as agonist
[4] = biological target: Protein smoothened (Mus musculus) (UniProt P56726); experiment: (§1) Agonist activity at SMO in mouse NIH3T3 cells incubated for 2 hrs by Bright-Glo luciferase assay
Protein smoothened [5] = biological target: T1, Protein smoothened (Mus musculus, UniProt P56726); experiment: as §1
Protein smoothened [6] = biological target: T1, Protein smoothened; experiment: Antagonist activity at SMO in mouse NIH3T3 cells preincubated for 2 hrs followed by SAG stimulation and measured after 24 hrs by Bright-Glo luciferase assay

Sequence of Protein smoothened (Mus musculus) (P56726 whole entry): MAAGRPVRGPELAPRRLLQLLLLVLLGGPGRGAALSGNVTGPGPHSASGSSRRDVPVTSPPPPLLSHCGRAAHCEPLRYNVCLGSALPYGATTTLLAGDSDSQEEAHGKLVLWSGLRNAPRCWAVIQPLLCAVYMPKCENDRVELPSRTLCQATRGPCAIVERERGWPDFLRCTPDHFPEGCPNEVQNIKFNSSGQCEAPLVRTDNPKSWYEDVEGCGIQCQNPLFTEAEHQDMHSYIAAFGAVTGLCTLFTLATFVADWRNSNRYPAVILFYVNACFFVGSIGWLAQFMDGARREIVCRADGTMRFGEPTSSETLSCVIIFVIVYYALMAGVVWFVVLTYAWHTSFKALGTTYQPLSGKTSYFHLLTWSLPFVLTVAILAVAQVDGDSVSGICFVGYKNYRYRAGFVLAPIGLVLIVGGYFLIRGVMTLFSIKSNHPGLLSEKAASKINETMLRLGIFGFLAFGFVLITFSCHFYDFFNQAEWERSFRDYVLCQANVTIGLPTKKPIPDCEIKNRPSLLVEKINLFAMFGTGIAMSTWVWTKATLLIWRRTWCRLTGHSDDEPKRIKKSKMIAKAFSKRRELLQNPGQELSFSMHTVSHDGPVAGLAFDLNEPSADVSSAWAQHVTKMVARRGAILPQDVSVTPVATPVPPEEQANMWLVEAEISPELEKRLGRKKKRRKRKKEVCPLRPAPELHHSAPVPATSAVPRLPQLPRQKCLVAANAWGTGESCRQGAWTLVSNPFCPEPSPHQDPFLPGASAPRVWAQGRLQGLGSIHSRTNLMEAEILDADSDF
T1 sequence (P56726 whole entry): as above

CN[C@H]1CC[C@H](N(Cc2cccc(-c3ccnc(OCCOCCOCCOCCn4cc(COCCOCCCCCC[C@](C)(O)C5CC[C@H]6[C@@H]7CC=C8C[C@@H](O)CC[C@]8(C)[C@H]7CC[C@]56C)nn4)c3)c2)C(=O)c2sc3ccccc3c2Cl)CC1 (stereo partly specified)
Activity ([1]; filed as agonist): Active
Activity [2]: Active
Activity [3]: Active
Activity [4]: inactive

CN[C@H]1CC[C@H](N(Cc2cccc(-c3ccnc(OCCOCCOCCn4cc(COCCCCCCC(C)(O)C5CC[C@H]6[C@@H]7CC=C8C[C@@H](O)CC[C@]8(C)[C@H]7CC[C@]56C)nn4)c3)c2)C(=O)c2sc3ccccc3c2Cl)CC1 (stereo partly specified)
EC50 (Protein smoothened [5]): 8 nM

[N-]=[N+]=NCCOCCOCCOCCOCCOCCS(=O)(=O)c1ccc(C(=O)Nc2ccc(Cl)c(-c3ccccn3)c2)c(Cl)c1
IC50 (Protein smoothened [6]): 3000 nM

CN[C@H]1CC[C@H](N(Cc2cccc(-c3ccnc(OCCOCCOCCOCCn4cc(COCCOCCOCCOCCCCCC[C@](C)(O)C5CC[C@H]6[C@@H]7CC=C8C[C@@H](O)CC[C@]8(C)[C@H]7CC[C@]56C)nn4)c3)c2)C(=O)c2sc3ccccc3c2Cl)CC1 (stereo partly specified)
Activity [4]: inactive

C[C@H](CCCCCCOCCOCc1cn(CCOCCOCCOCCOCCOCCS(=O)(=O)c2ccc(C(=O)Nc3ccc(Cl)c(-c4ccccn4)c3)c(Cl)c2)nn1)C1CC[C@H]2[C@@H]3CC=C4C[C@@H](O)CC[C@]4(C)[C@H]3CC[C@]12C (stereo partly specified)
Activity [1]: inactive

CC1=C2C[C@H]3[C@@H](CC=C4C[C@@H](O)CC[C@@]43C)[C@@H]2CC[C@]12O[C@@H]1C[C@H](C)CN[C@H]1[C@H]2C
Activity [2]: Active
Activity [3]: Active

CC(O)(CCCCCCOCCOCc1cn(CCOCCOCCOCCOCCOCCS(=O)(=O)c2ccc(C(=O)Nc3ccc(Cl)c(-c4ccccn4)c3)c(Cl)c2)nn1)C1CC[C@H]2[C@@H]3CC=C4C[C@@H](O)CC[C@]4(C)[C@H]3CC[C@]12C (stereo partly specified)
Activity [1]: inactive
Activity [4]: inactive
IC50 (Protein smoothened [6]): 20 nM

CC(O)(CCCCCCOCCOCc1cn(CCOCCOCCOCCO)nn1)C1CC[C@H]2[C@@H]3CC=C4C[C@@H](O)CC[C@]4(C)[C@H]3CC[C@]12C (stereo partly specified)
EC50 (Protein smoothened [5]): > 100000 nM

CC(O)(CCCCCCOCCOCc1cn(CCOCCOCCOCCS(=O)(=O)c2ccc(C(=O)Nc3ccc(Cl)c(-c4ccccn4)c3)c(Cl)c2)nn1)C1CC[C@H]2[C@@H]3CC=C4C[C@@H](O)CC[C@]4(C)[C@H]3CC[C@]12C (stereo partly specified)
IC50 (Protein smoothened [6]): 20 nM

CC(O)(CCCCCCOCCOCc1cn(CCOCCOCCS(=O)(=O)c2ccc(C(=O)Nc3ccc(Cl)c(-c4ccccn4)c3)c(Cl)c2)nn1)C1CC[C@H]2[C@@H]3CC=C4C[C@@H](O)CC[C@]4(C)[C@H]3CC[C@]12C (stereo partly specified)
IC50 (Protein smoothened [6]): 20 nM

CN[C@H]1CC[C@H](N(Cc2cccc(-c3ccnc(OCCOCCOCCOCCn4cc(COCCOCCC#CCCC(C)(O)C5CC[C@H]6[C@@H]7CC=C8C[C@@H](O)CC[C@]8(C)[C@H]7CC[C@]56C)nn4)c3)c2)C(=O)c2sc3ccccc3c2Cl)CC1 (stereo partly specified)
Activity ([1]; filed as agonist): Active
Activity [2]: Active
Activity [3]: Active

CN[C@H]1CC[C@H](N(Cc2cccc(-c3ccnc(OCCOCCOCCOCCn4cc(COCCOCCOCCOCCOCCCCCC[C@](C)(O)C5CC[C@H]6[C@@H]7CC=C8C[C@@H](O)CC[C@]8(C)[C@H]7CC[C@]56C)nn4)c3)c2)C(=O)c2sc3ccccc3c2Cl)CC1 (stereo partly specified)
Activity [4]: inactive

CN[C@H]1CC[C@H](N(Cc2cccc(-c3ccnc(OCCOCCOCCOCCn4cc(COCCOCCOCCCCCC[C@](C)(O)C5CC[C@H]6[C@@H]7CC=C8C[C@@H](O)CC[C@]8(C)[C@H]7CC[C@]56C)nn4)c3)c2)C(=O)c2sc3ccccc3c2Cl)CC1 (stereo partly specified)
EC50 (Protein smoothened [5]): 8 nM

CN[C@H]1CC[C@H](N(Cc2cccc(-c3ccnc(OC)c3)c2)C(=O)c2sc3ccccc3c2Cl)CC1
EC50 (Protein smoothened [5]): 819 nM

CN[C@H]1CC[C@H](N(Cc2cccc(-c3ccnc(OCCOCCOCCOCCOCCOCCn4cc(COCCOCCOCCOCCOCCOCCOCCOCCCCCC[C@@H](C)C5CC[C@H]6[C@@H]7CC=C8C[C@@H](O)CC[C@]8(C)[C@H]7CC[C@]56C)nn4)c3)c2)C(=O)c2sc3ccccc3c2Cl)CC1 (stereo partly specified)
EC50 (Protein smoothened [5]): 200 nM

CN[C@H]1CC[C@H](N(Cc2cccc(-c3ccnc(OCCn4cc(COCCCCCCC[C@](C)(O)[C@H]5CC[C@H]6[C@@H]7CC=C8C[C@@H](O)CC[C@]8(C)[C@H]7CC[C@@]65C)nn4)c3)c2)C(=O)c2sc3ccccc3c2Cl)CC1
Activity [4]: inactive

CN[C@H]1CC[C@H](N(Cc2cccc(-c3ccnc(OCCOCCOCCOCCn4cc(COCCOCCOCC(=O)N5C[C@@H](C)C[C@H]6O[C@]7(CC[C@@H]8C(=C7C)C[C@H]7[C@H]8CC=C8C[C@@H](O)CC[C@@]87C)[C@H](C)[C@@H]65)nn4)c3)c2)C(=O)c2sc3ccccc3c2Cl)CC1
Activity ([1]; filed as agonist): Active
Activity [2]: Active
Activity [3]: Active

CN[C@H]1CC[C@H](N(Cc2cccc(-c3ccnc(OCCOCCOCCOCCn4cc(COCCCCCC[C@](C)(O)C5CC[C@H]6[C@@H]7CC=C8C[C@@H](O)CC[C@]8(C)[C@H]7CC[C@]56C)nn4)c3)c2)C(=O)c2sc3ccccc3c2Cl)CC1 (stereo partly specified)
EC50 (Protein smoothened [5]): 8 nM

CN[C@H]1CC[C@H](N(Cc2cccc(-c3ccncc3)c2)C(=O)c2sc3ccccc3c2Cl)CC1
Activity [2]: Active
Activity [3]: Active
EC50 (Protein smoothened [5]): 16.9 nM

CC(O)(CCCCCCO)C1CC[C@H]2[C@@H]3CC=C4C[C@@H](O)CC[C@]4(C)[C@H]3CC[C@]12C (stereo partly specified)
EC50 (Protein smoothened [5]): > 100000 nM

CC(O)(CCCCCCOCCOCCOCCOCCOCCOCCOCCOCCOCc1cn(CCOCCOCCOCCOCCOCCS(=O)(=O)c2ccc(C(=O)Nc3ccc(Cl)c(-c4ccccn4)c3)c(Cl)c2)nn1)C1CC[C@H]2[C@@H]3CC=C4C[C@@H](O)CC[C@]4(C)[C@H]3CC[C@]12C (stereo partly specified)
IC50 (Protein smoothened [6]): 20 nM

CC(O)(CCCCCCOCCOCCOCc1cn(CCOCCOCCOCCOCCOCCS(=O)(=O)c2ccc(C(=O)Nc3ccc(Cl)c(-c4ccccn4)c3)c(Cl)c2)nn1)C1CC[C@H]2[C@@H]3CC=C4C[C@@H](O)CC[C@]4(C)[C@H]3CC[C@]12C (stereo partly specified)
IC50 (Protein smoothened [6]): 20 nM

CN[C@H]1CC[C@H](N(Cc2cccc(-c3ccnc(OCCOCCOCCOCCn4cc(COCCOCCCCCC[C@@H](C)C5CC[C@H]6[C@@H]7CC=C8C[C@@H](O)CC[C@]8(C)[C@H]7CC[C@]56C)nn4)c3)c2)C(=O)c2sc3ccccc3c2Cl)CC1 (stereo partly specified)
Activity ([1]; filed as agonist): Active
Activity [2]: Active
Activity [3]: Active
EC50 (Protein smoothened [5]): 200 nM

CN[C@H]1CC[C@H](N(Cc2cccc(-c3ccnc(OCCOCCOCCOCCOCCOCCn4cc(COCCOCCOCCOCCOCCOCCOCCCCCC[C@@H](C)C5CC[C@H]6[C@@H]7CC=C8C[C@@H](O)CC[C@]8(C)[C@H]7CC[C@]56C)nn4)c3)c2)C(=O)c2sc3ccccc3c2Cl)CC1 (stereo partly specified)
EC50 (Protein smoothened [5]): 200 nM

CC(O)(CCCCCCOCCOCCOCCOCCOCc1cn(CCOCCOCCOCCOCCOCCS(=O)(=O)c2ccc(C(=O)Nc3ccc(Cl)c(-c4ccccn4)c3)c(Cl)c2)nn1)C1CC[C@H]2[C@@H]3CC=C4C[C@@H](O)CC[C@]4(C)[C@H]3CC[C@]12C (stereo partly specified)
IC50 (Protein smoothened [6]): 20 nM

CN[C@H]1CC[C@H](N(Cc2cccc(-c3ccnc(OCCOCCOCCOCCn4cc(COCCOCCOCCOCCOCCOCCOCCCCCC[C@](C)(O)C5CC[C@H]6[C@@H]7CC=C8C[C@@H](O)CC[C@]8(C)[C@H]7CC[C@]56C)nn4)c3)c2)C(=O)c2sc3ccccc3c2Cl)CC1 (stereo partly specified)
Activity [4]: inactive

CN[C@H]1CC[C@H](N(Cc2cccc(-c3ccnc(OCCOCCOCCOCCOCCn4cc(COCCOCCOCCOCCOCCOCCOCCCCCCC(C)(O)C5CC[C@H]6[C@@H]7CC=C8C[C@@H](O)CC[C@]8(C)[C@H]7CC[C@]56C)nn4)c3)c2)C(=O)c2sc3ccccc3c2Cl)CC1 (stereo partly specified)
Activity [4]: inactive

CN[C@H]1CC[C@H](N(Cc2cccc(-c3ccnc(OCCOCCOCCOCCOCCOCCn4cc(COCCOCCOCCOCCOCCOCCOCCCCCCC(C)(O)C5CC[C@H]6[C@@H]7CC=C8C[C@@H](O)CC[C@]8(C)[C@H]7CC[C@]56C)nn4)c3)c2)C(=O)c2sc3ccccc3c2Cl)CC1 (stereo partly specified)
Activity [4]: inactive

CN[C@H]1CC[C@H](N(Cc2cccc(-c3ccnc(OCCOCCn4cc(COCCCCCC[C@](C)(O)[C@H]5CC[C@H]6[C@@H]7CC=C8C[C@@H](O)CC[C@]8(C)[C@H]7CC[C@@]65C)nn4)c3)c2)C(=O)c2sc3ccccc3c2Cl)CC1
Activity [4]: inactive

CN[C@H]1CC[C@H](N(Cc2cccc(-c3ccnc(OCCOCCOCCOCCn4cc(COCCO)nn4)c3)c2)C(=O)c2sc3ccccc3c2Cl)CC1
EC50 (Protein smoothened [5]): 966 nM

CN[C@H]1CC[C@H](N(Cc2cccc(-c3ccnc(OCCOCCOCCOCCn4cc(COCCOCCOCCOCCOCCOCCOCCCCCC[C@@H](C)C5CC[C@H]6[C@@H]7CC=C8C[C@@H](O)CC[C@]8(C)[C@H]7CC[C@]56C)nn4)c3)c2)C(=O)c2sc3ccccc3c2Cl)CC1 (stereo partly specified)
EC50 (Protein smoothened [5]): 200 nM

CN[C@H]1CC[C@H](N(Cc2cccc(-c3ccnc(OCCOCCOCCOCCn4cc(COCCOCCOCCOCCCCCC[C@@H](C)C5CC[C@H]6[C@@H]7CC=C8C[C@@H](O)CC[C@]8(C)[C@H]7CC[C@]56C)nn4)c3)c2)C(=O)c2sc3ccccc3c2Cl)CC1 (stereo partly specified)
EC50 (Protein smoothened [5]): 200 nM

CC(O)(CCCCCCOCCOCCOCCOCCOCCOCCOCc1cn(CCOCCOCCOCCOCCOCCS(=O)(=O)c2ccc(C(=O)Nc3ccc(Cl)c(-c4ccccn4)c3)c(Cl)c2)nn1)C1CC[C@H]2[C@@H]3CC=C4C[C@@H](O)CC[C@]4(C)[C@H]3CC[C@]12C (stereo partly specified)
IC50 (Protein smoothened [6]): 20 nM

CN[C@H]1CC[C@H](N(Cc2cccc(-c3ccnc(OCCOCCOCCOCCOCCOCCn4cc(COCCOCCOCCOCCOCCOCCOCCOCCOCCCCCC[C@@H](C)C5CC[C@H]6[C@@H]7CC=C8C[C@@H](O)CC[C@]8(C)[C@H]7CC[C@]56C)nn4)c3)c2)C(=O)c2sc3ccccc3c2Cl)CC1 (stereo partly specified)
EC50 (Protein smoothened [5]): 200 nM

CC(O)(CCCCCCOCCOCc1cn(CCOCCOCCOCCOCCS(=O)(=O)c2ccc(C(=O)Nc3ccc(Cl)c(-c4ccccn4)c3)c(Cl)c2)nn1)C1CC[C@H]2[C@@H]3CC=C4C[C@@H](O)CC[C@]4(C)[C@H]3CC[C@]12C (stereo partly specified)
IC50 (Protein smoothened [6]): 20 nM

CN[C@H]1CC[C@H](N(Cc2cccc(-c3ccnc(OCCOCCOCCOCCn4cc(COCCOCCOCCOCCOCCOCCCCCC[C@](C)(O)C5CC[C@H]6[C@@H]7CC=C8C[C@@H](O)CC[C@]8(C)[C@H]7CC[C@]56C)nn4)c3)c2)C(=O)c2sc3ccccc3c2Cl)CC1 (stereo partly specified)
Activity [4]: inactive
